How the values were obtained:
[1] = Partition coefficient (log P) study, chloroform / buffer, HPLC; type: physicochemical; conditions: 37°C, 24 hours
Procedure: 20 mg of amide compound is dissolved in 20 ml of chloroform. 10 mL of this mixture is drawn out (divided into two). This 10 ml of mixture is added to 20 ml with pH 1.2 buffer solution. Likewise the other 10 ml of mixture is added to 20 ml with pH 6.8 buffer solution. The tubes placed in a 37°C incubator are mixed for 24 hours.
After 24 hours the chloroform phase was removed and transferred to separate tubes. The chloroform is evaporated. After evaporation of chloroform, 10 mL of ACN is added and thoroughly mixed. 0.1 ml of the sample is taken out of the mixture with ACN and this sample is added to 10 ml with the mobile phase (S1, S2, S3) (Cn=1ug/ml)
The standard samples used in this study were prepared according to the method of preparation of standard samples given above.
• HPLC Column Type: ACE C18 reverse phase. • Flow Rate: 1 ml/min. • Wavelength: 210 nm

[2] = compared with ibuprofen, equimolar doses; cited from earlier work
[3] = compared with the ibuprofen molecule; cited from earlier work
[4] = pH 1.2 buffer solution / chloroform
[5] = pH 6.8 buffer solution / chloroform

Compound	Log P (Experimental result) [1, 4]	Log P (Experimental result) [1, 5]	effect in relieving edema and in lowering fever [2]	gastrointestinal and acute toxicities [3]
C[C@H](C(=O)NC(CO)(CO)CO)c1cccc(C(=O)c2ccccc2)c1 [Compound 1b, (+)-(2S)-2-(3-Benzoylphenyl)-N-[1,3-dihydroxy-2-(hydroxymethyl)propan-2-yl]propanamide]	-0.05	+0.05		
CC(C)Cc1ccc(C(C)C(=O)NC(CO)(CO)CO)cc1 (centres unmarked) [Compound 2b, N-[1,3-dihydroxy-2-(hydroxmethyl)propan-2-yl]-2-(4-isobutylphenyl)propanamide]	-0.12	-0.41		
CC(C(=O)NC(CO)(CO)CO)c1ccc(-c2ccccc2)c(F)c1 (centres unmarked) [Compound 3b, N-[1,3-Dihydroxy-2-(hydroxymethyl)propan-2-yl]-2-(2-fluorobiphenyl-4-yl)propanamide]	-0.14	-0.95		
COc1ccccc1OC(=O)C(C)c1ccc(CC(C)C)cc1 (centres unmarked) [guiacol ester of ibuprofen]			same effect	much lower

— patent publication EP2878592B1, “SYNTHESIS OF AMIDE DERIVATIVES OF SOME NONSTEROIDAL ANTIINFLAMMATORY DRUGS AS POTENTIAL PRO-DRUGS” (Kücükgüzel, Ilkay, priority 2013, dated 2015)
